Experimental data published in patent US10167262B2, “Herbicidal substituted 3-arylpyrazoles” (FMC CORPORATION, priority 2014, dated 2019).

Legend:
Type in all cases: in vivo
wild oat (Avena fatua) = assay: Test C postemergence greenhouse test, plant response rating 0-100; conditions: for Plant response rating, Oat, Wild: scale 0 to 100
How it was run: (§1)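 Potted in peat/vermiculite mix; postemergence application at 1–4 leaves (2–18 cm); greenhouse 13–15 d; visual score 0–100 relative to untreated plants; dash = no test result.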

kochia (Kochia scoparia) = assay: as above; conditions: for Plant response rating, Kochia: scale 0 to 100
How it was run: as §1

[1] = test system: chickweed (common chickweed, Stellaria media); assay: as above; conditions: for Plant response rating, Chickweed: scale 0 to 100
How it was run: as §1

[2] = test system: galium (catchweed bedstraw, Galium aparine); assay: Test C pre-/postemergence greenhouse test, plant response rating 0-100; conditions: Postemergence; for Plant response rating, Galium: scale 0 to 100
How it was run: (§2)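 Two application timings: preemergence onto seeded loam/sand soil and postemergence onto plants at the 1–4 leaf stage (2–18 cm) in peat/vermiculite medium. Formulation: non-phytotoxic solvent with surfactant. Read-out: visual control rating, 0–100, at 13–15 days after treatment.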

[3] = test system: ragweed (common ragweed, Ambrosia elatior); assay: as above; conditions: Postemergence; for Plant response rating, Ragweed: scale 0 to 100;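 for all read-outs here: 0 is no effect and 100 is complete control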
How it was run: as §2

[4] = test system: pigweed (Amaranthus retroflexus); assay: as above; conditions: Postemergence; for Plant response rating, Pigweed: scale 0 to 100
How it was run: as §2

[5] = test system: large (Lg) crabgrass (Digitaria sanguinalis); assay: as above; conditions: Postemergence; for Plant response rating, Crabgrass, Large: scale 0 to 100
How it was run: as §2

[6] = test system: winter wheat (Triticum aestivum); assay: as above; conditions: Postemergence; for Plant response rating, Wheat: scale 0 to 100
How it was run: as §2

[7] = test system: blackgrass (Alopecurus myosuroides); assay: as above; conditions: Postemergence; for Plant response rating, Blackgrass: scale 0 to 100;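 for all read-outs here: 0 is no effect and 100 is complete control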
How it was run: as §2

[8] = test system: yellow nutsedge (Cyperus esculentus); assay: as above; conditions: Postemergence; for Plant response rating, Nutsedge, Yellow: scale 0 to 100
How it was run: as §2

[9] = test system: Italian ryegrass (Lolium multiflorum); assay: as above; conditions: Postemergence; for Plant response rating, Ryegrass, Italian: scale 0 to 100
How it was run: as §2

[10] = test system: giant foxtail (Setaria faberii); assay: as above; conditions: Postemergence; for Plant response rating, Foxtail, Giant: scale 0 to 100
How it was run: as §2

corn (Zea mays) = assay: as above; conditions: Postemergence
How it was run: as §2

soybean (Glycine max) = assay: as above; conditions: Postemergence; for Plant response rating, Soybean: scale 0 to 100
How it was run: as §2

CCn1cc(C(=O)c2cccs2)c(-c2cc(Cl)cc(Cl)c2)n1 [Compound 18]
25: Plant response rating, Ragweed ([3]; 500 g ai/ha)
85: Plant response rating (0 to 100), Pigweed ([4]; 62 g ai/ha)
35: Plant response rating, Galium ([2]; 500 g ai/ha)
45: Plant response rating, Kochia (kochia (Kochia scoparia); 250 g ai/ha)
40: Plant response rating (0 to 100), Kochia (kochia (Kochia scoparia); 125 g ai/ha)
80: Plant response rating (0 to 100), Chickweed ([1]; 125 g ai/ha)
10: Plant response rating (0 to 100), Ragweed ([3]; 125 g ai/ha) | Plant response rating (0 to 100), Foxtail, Giant ([10]; 125 g ai/ha) | Plant response rating, Corn (corn (Zea mays); 250 g ai/ha, scale 0 to 100)
0: Plant response rating (0 to 100), Oat, Wild (wild oat (Avena fatua); 62 g ai/ha) | Plant response rating (0 to 100), Oat, Wild (wild oat (Avena fatua); 125 g ai/ha) | Plant response rating, Oat, Wild (wild oat (Avena fatua); 250 g ai/ha) | Plant response rating, Oat, Wild (wild oat (Avena fatua); 500 g ai/ha) | Plant response rating (0 to 100), Galium ([2]; 62 g ai/ha) | Plant response rating (0 to 100), Galium ([2]; 125 g ai/ha) | Plant response rating, Galium ([2]; 250 g ai/ha) | Plant response rating (0 to 100), Wheat ([6]; 62 g ai/ha) | Plant response rating (0 to 100), Wheat ([6]; 125 g ai/ha) | Plant response rating, Wheat ([6]; 250 g ai/ha) | Plant response rating (0 to 100), Blackgrass ([7]; 62 g ai/ha) | Plant response rating, Blackgrass ([7]; 125 g ai/ha) | Plant response rating, Blackgrass ([7]; 250 g ai/ha) | Plant response rating, Blackgrass ([7]; 500 g ai/ha) | Plant response rating (0 to 100), Nutsedge, Yellow ([8]; 62 g ai/ha) | Plant response rating (0 to 100), Nutsedge, Yellow ([8]; 125 g ai/ha) | Plant response rating (0 to 100), Ryegrass, Italian ([9]; 62 g ai/ha) | Plant response rating (0 to 100), Ryegrass, Italian ([9]; 125 g ai/ha) | Plant response rating, Ryegrass, Italian ([9]; 250 g ai/ha)
100: Plant response rating, Chickweed ([1]; 500 g ai/ha) | Plant response rating (0 to 100), Pigweed ([4]; 125 g ai/ha) | Plant response rating, Pigweed ([4]; 250 g ai/ha) | Plant response rating, Pigweed ([4]; 500 g ai/ha)
98: Plant response rating, Chickweed ([1]; 250 g ai/ha)
50: Plant response rating (0 to 100), Chickweed ([1]; 62 g ai/ha)
5: Plant response rating (0 to 100), Crabgrass, Large ([5]; 62 g ai/ha) | Plant response rating (0 to 100), Crabgrass, Large ([5]; 125 g ai/ha) | Plant response rating, Wheat ([6]; 500 g ai/ha) | Plant response rating, Nutsedge, Yellow ([8]; 250 g ai/ha) | Plant response rating, Nutsedge, Yellow ([8]; 500 g ai/ha) | Plant response rating, Ryegrass, Italian ([9]; 500 g ai/ha) | Plant response rating (0 to 100), Foxtail, Giant ([10]; 62 g ai/ha) | Plant response rating (0 to 100), Corn (corn (Zea mays); 125 g ai/ha) | Plant response rating (0 to 100), Soybean (soybean (Glycine max); 62 g ai/ha)
20: Plant response rating (0 to 100), Kochia (kochia (Kochia scoparia); 62 g ai/ha) | Plant response rating, Crabgrass, Large ([5]; 500 g ai/ha) | Plant response rating, Foxtail, Giant ([10]; 500 g ai/ha) | Plant response rating, Soybean (soybean (Glycine max); 250 g ai/ha) | Plant response rating, Soybean (soybean (Glycine max); 500 g ai/ha)
60: Plant response rating, Kochia (kochia (Kochia scoparia); 500 g ai/ha)
15: Plant response rating, Ragweed ([3]; 250 g ai/ha) | Plant response rating, Crabgrass, Large ([5]; 250 g ai/ha) | Plant response rating, Foxtail, Giant ([10]; 250 g ai/ha) | Plant response rating (0 to 100), Soybean (soybean (Glycine max); 125 g ai/ha)
